According to PubChem BioAssay (NCI):
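Cells were grown in 96-well plates and exposed to each compound for 48 hours at five concentrations; endpoints were interpolated linearly between bracketing concentrations, or set to the highest concentration if not reached. Here, GI50 denotes the concentration required for 50% inhibition of growth. TGI is the concentration that stops growth completely.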

Experiments:
Experiment in all cases: DTP human tumour cell line panel, 48 h
SNB-75 CNS = system: SNB-75 CNS
SF-295 CNS = system: SF-295 CNS
HL-60(TB) leukemia = system: HL-60(TB) leukemia
NCI-H226 lung = system: NCI-H226 lung
OVCAR-5 ovarian = system: OVCAR-5 ovarian
NCI-H522 lung = system: NCI-H522 lung
HCC-2998 colon = system: HCC-2998 colon
SF-268 CNS = system: SF-268 CNS
UACC-257 melanoma = system: UACC-257 melanoma
A549 NSCLC = system: A549 NSCLC

SMILES | GI50 (SNB-75 CNS) | TGI (SNB-75 CNS) | GI50 (SF-295 CNS) | TGI (SF-295 CNS) | GI50 (HL-60(TB) leukemia) | TGI (HL-60(TB) leukemia) | GI50 (NCI-H226 lung) | TGI (NCI-H226 lung) | GI50 (OVCAR-5 ovarian) | TGI (OVCAR-5 ovarian) | GI50 (NCI-H522 lung) | TGI (NCI-H522 lung) | GI50 (HCC-2998 colon) | TGI (HCC-2998 colon) | GI50 (SF-268 CNS) | TGI (SF-268 CNS) | GI50 (UACC-257 melanoma) | TGI (UACC-257 melanoma) | GI50 (A549 NSCLC) | TGI (A549 NSCLC)
COc1ccccc1Cn1cc2c(c1-c1ccccc1)CCc1cnoc1-2 | 2.42 µM | 7.34 µM | 1.09 µM | 9.52 µM | 1.32 µM | 8.36 µM | 8.52 µM | > 100 µM | 9.82 µM | > 100 µM | 0.398 µM | 1.99 µM | 5.48 µM | > 100 µM | 8.34 µM | > 100 µM | 20.2 µM | > 100 µM | 4.31 µM | > 100 µM
Cc1ccc(NC(=O)c2sc3nc(C)c(C(O)c4ccccc4)cc3c2N)cc1 (stereo not given) | 0.245 µM | 13.6 µM | 0.339 µM | 4.03 µM | 0.293 µM | 0.909 µM | 1.27 µM | 41.2 µM | 0.698 µM | 24.1 µM | 0.617 µM | > 48.7 µM | 0.818 µM | 5.73 µM | 2.47 µM | > 100 µM | 4.09 µM | > 100 µM | 0.64 µM | 32.7 µM
CS(=O)(=O)c1cc(=O)c2ccccc2s1 |  | 31 µM |  | 24.8 µM |  | 6.45 µM |  | 20.3 µM |  | 22.3 µM |  | 3.32 µM |  | 30.5 µM |  | 32.1 µM |  | 7.92 µM |  | 35.7 µM
